# Assay results published in paper PMC11651181, “Discovery of 6α-Thiazolylcarboxamidonaltrexamine Derivative (NTZ) as a Potent and Central Nervous System Penetrant Opioid Receptor Modulator with Drug-like Properties for Potential Treatment of Opioid Use Disorder” (ACS Pharmacology & Translational Science, 2024).
# Counter-ions that a name gives are not always drawn.
# Key:
# [1] = Caco-2 permeability studies; format: in vitro ADME; conditions: human, 1 h incubation
# Protocol: Caco-2 cells (HTB-37) were cultured in T75 flasks using DMEM supplemented with 10% FBS, 1% glutamine, penicillin, and streptomycin at 37 °C and 5% CO2. Cells were passaged at 80–90% confluency and seeded into Millipore 96-well plates (25,000 cells/well) to form monolayers, with media changed every 2–3 days for 21 days until 100% confluency. Permeability studies involved adding 10 μM compound 6 to the apical (A) or basolateral (B) side and measuring permeation across the monolayer. Lucifer yellow dye (100 μM) was used in the A-side buffer as a control. Incubation lasted 1 h, and permeability was assessed using ranitidine/colchicine (low permeability) and labetalol/propranolol (high permeability) as controls. Samples were collected, quenched with methanol, centrifuged, and analyzed by HPLC-MS/MS to determine peak area ratios.
# Data was expressed as [drawing 1] here VR is the volume of the receiver chamber. CR,end is the concentration of the test compound in the receiver chamber at the final time point, Δt denotes the incubation time, and A is the surface area of the cell monolayer. CD,mid is the average midpoint concentration of the test compound on the donor side, calculated as the mean of the donor concentrations at 0 min and at the end time point. […] Test compound concentrations were determined based on their peak areas.
# typical tester strains = assay: Bacterial reverse mutation assay; conditions: up to 100 μM
# Protocol: The ADMET assessment including the hERG inhibitory activity, plasma protein binding, in vitro metabolic stability profile, CYP inhibitory effect and mutagenic evaluation were conducted by Eurofins Panlabs, Inc.[21],[61],[69]−[71]
compound,measurement,setting,value
"O=C(N[C@H]1CC[C@@]2(O)[C@H]3Cc4ccc(O)c5c4[C@@]2(CCN3CC2CC2)[C@H]1O5)c1nccs1 [Compound 6, 17-Cyclopropylmethyl-3,14β-dihydroxy-4,5α-epoxy-6α-(2′-thiazolylcarboxamido)-morphinan hydrochloride]","Papp A→B at 1 h, 10 μM",[1],13.1 ×10⁻⁶ cm/s
same,"Papp B→A at 1 h, 10 μM",[1],33.2 ×10⁻⁶ cm/s
same,"Mutagenic potential, in words",typical tester strains,no mutagenic potential
